Measured values as given in paper PMC7025694 (Acta Orthopaedica, 2018).

Assay type: in vivo, pig

- time to a mean MIC of 8 µg/mL (intervertebral disc, pig, 1,000 mg i.v. over 100 min, sampling 8 h): could not be reached
- Tmax, time to Cmax (plasma (unbound), pig, 1,000 mg i.v. single dose over 100 min, mean (95% CI)): 75 (61–89) min
Compound: CN[C@H](CC(C)C)C(=O)N[C@H]1C(=O)N[C@@H](CC(N)=O)C(=O)N[C@H]2C(=O)N[C@H]3C(=O)N[C@H](C(=O)N[C@H](C(=O)O)c4cc(O)cc(O)c4-c4cc3ccc4O)[C@H](O)c3ccc(c(Cl)c3)Oc3cc2cc(c3O[C@@H]2O[C@H](CO)[C@@H](O)[C@H](O)[C@H]2O[C@H]2C[C@](C)(N)[C@H](O)[C@H](C)O2)Oc2ccc(cc2Cl)[C@H]1O [vancomycin]
